In the NIST ThermoML archive (doi:10.1016/j.tca.2010.04.025):
Values joined by “and” are separate entries in the source; they are usually repeats but may differ in a detail not shown here. Identical values can stand only once.

Legend:
[1] = xn = mol fraction of the nth substance listed; settings: 101 kPa, Liquid; for speed of sound: Linear variable-path acoustic interferometer; for mass density: Pycnometric method
[2] = 101 kPa, Liquid; for speed of sound: Linear variable-path acoustic interferometer; for mass density: Pycnometric method

CNc1ccccc1 [N-methylaniline] + C1CCOC1
[1]
Settings	mass density, 303.15 K [kg/m3]	mass density, 313.15 K [kg/m3]	mass density, 323.15 K [kg/m3]	speed of sound, 303.15 K [m/s]	speed of sound, 313.15 K [m/s]	speed of sound, 323.15 K [m/s]
x2 = 0	978.2	969.8	961	1548	1512	1477
x2 = 0.0831	973.1	964.9	956.6	1528	1493	1459
x2 = 0.1864	966	958.3	949.9	1502	1466	1433
x2 = 0.2813	959.1	951.4	943.4	1478	1442	1407
x2 = 0.3782	951.5	944	935.8	1453	1416	1381
x2 = 0.4714	943.5	936	927.4	1428	1390	1354
x2 = 0.5746	933.2	926	916.9	1396	1358	1322
x2 = 0.6956	919.4	912.2	902.6	1357	1318	1282
x2 = 0.7823	908.2	900.8	891.1	1329	1289	1252
x2 = 0.8882	893.4	885.7	875.8	1293	1252	1213

Nc1ccccc1 [aniline] + C1CCOC1
[1]
Settings	mass density, 303.15 K [kg/m3]	mass density, 313.15 K [kg/m3]	mass density, 323.15 K [kg/m3]	speed of sound, 303.15 K [m/s]	speed of sound, 313.15 K [m/s]	speed of sound, 323.15 K [m/s]
x2 = 0	1012.8	1004.9	998.4	1615	1583	1558
x2 = 0.087	1004.4	997.5	991.5	1592	1561	1537
x2 = 0.1803	994.8	988.2	981.6	1565	1531	1510
x2 = 0.2735	984.8	978.5	971.8	1535	1500	1478
x2 = 0.3573	975.4	969.4	962.4	1509	1473	1450
x2 = 0.4556	964.1	957.8	951.6	1476	1440	1417
x2 = 0.5638	950.5	943.9	937.9	1438	1402	1379
x2 = 0.6708	935	928.7	922.6	1393	1359	1334
x2 = 0.8169	910.1	904	898.5	1334	1299	1268
x2 = 0.8812	898.7	892.2	885	1306	1267	1237

C1CCOC1 [tetrahydrofuran] + Nc1ccccc1
[1], x1 = 1
Settings	mass density [kg/m3]	speed of sound [m/s]
303.15 K	877.3	1256
313.15 K	867.2	1212
323.15 K	856.6	1171

CNc1ccccc1 [N-methylaniline]
[2]
Settings	mass density [kg/m3]	speed of sound [m/s]
303.15 K	978.2	1548
313.15 K	969.8	1512
323.15 K	961	1477

C1CCOC1 [tetrahydrofuran] + CCNc1ccccc1
[1], x1 = 1
Settings	mass density [kg/m3]	speed of sound [m/s]
303.15 K	877.3	1256
313.15 K	867.2	1212
323.15 K	857.1	1171

CCNc1ccccc1 [N-ethylaminobenzene]
[2]
Settings	mass density [kg/m3]	speed of sound [m/s]
303.15 K	951.9	1497
313.15 K	944.3	1462
323.15 K	935.9	1431

Nc1ccccc1 [aniline]
[2]
Settings	mass density [kg/m3]	speed of sound [m/s]
303.15 K	1012.8	1615
313.15 K	1004.9	1583
323.15 K	998.4	1558

C1CCOC1 [tetrahydrofuran]
[2]
Settings	mass density	speed of sound [m/s]
303.15 K	877.3 kg/m3	1256
313.15 K	867.2 kg/m3	1212
323.15 K	856.6 kg/m3 and 857.1 kg/m3	1171

C1CCOC1 [tetrahydrofuran] + CNc1ccccc1
[1], x1 = 1
Settings	mass density [kg/m3]	speed of sound [m/s]
303.15 K	877.3	1256
313.15 K	867.2	1212
323.15 K	856.6	1171

CCNc1ccccc1 [N-ethylaminobenzene] + C1CCOC1
[1]
Settings	mass density, 303.15 K [kg/m3]	mass density, 313.15 K [kg/m3]	mass density, 323.15 K [kg/m3]	speed of sound, 303.15 K [m/s]	speed of sound, 313.15 K [m/s]	speed of sound, 323.15 K [m/s]
x2 = 0	951.9	944.3	935.9	1497	1462	1431
x2 = 0.0904	947.8	940.8	932.8	1482	1450	1420
x2 = 0.1892	943.8	936.7	929.1	1469	1435	1404
x2 = 0.2849	939.5	932.4	925.2	1452	1418	1388
x2 = 0.3819	934.5	927.6	920.6	1433	1399	1367
x2 = 0.4674	929.3	922.6	915.7	1414	1379	1346
x2 = 0.5758	921.9	915.2	908.1	1387	1351	1317
x2 = 0.6778	913.1	906.4	899.5	1360	1323	1286
x2 = 0.7876	902.1	895.4	887.7	1326	1287	1250
x2 = 0.8903	890.8	882.8	874.2	1291	1251	1215
